Reference: patent US11066396B2 (priority 2016, dated 2021)

What was measured:
HDAC1 = HDAC1 (Homo sapiens (Human), UniProt Q13547); conditions: read-out: HDAC1 IC50
Method: Assay protocol: In brief, compounds were titrated in 100% DMSO via accoustic dispensing directly to the assay plate using the ECHO 550 [Labcyte]. HDAC enzymes at the concentrations indicated above were added in assay buffer to the assay plates containing the compounds using a Combi [Thermo Scientific]. The wells were mixed, and the plates were allowed to pre-incubate at ambient temperature for 3 h. After the 3 h, the appropriate substrate, at the concentrations indicated above, was added to the wells using a Combi. The wells were mixed, and the plates were allowed to incubate at ambient temperature for 1 h. After the 1 h, the appropriate Developer/stop solution was added to the wells using a Combi. The wells were mixed, and the plates were allowed to incubate at ambient temperature for 1 h. […] Data were analyzed using 4P curve fitting with Activity Base [IDBS] software.

HDAC8 = HDAC8 (Homo sapiens (Human), UniProt Q9BY41); conditions: read-out: HDAC8 IC50
Chain of HDAC8 (Q9BY41 whole entry): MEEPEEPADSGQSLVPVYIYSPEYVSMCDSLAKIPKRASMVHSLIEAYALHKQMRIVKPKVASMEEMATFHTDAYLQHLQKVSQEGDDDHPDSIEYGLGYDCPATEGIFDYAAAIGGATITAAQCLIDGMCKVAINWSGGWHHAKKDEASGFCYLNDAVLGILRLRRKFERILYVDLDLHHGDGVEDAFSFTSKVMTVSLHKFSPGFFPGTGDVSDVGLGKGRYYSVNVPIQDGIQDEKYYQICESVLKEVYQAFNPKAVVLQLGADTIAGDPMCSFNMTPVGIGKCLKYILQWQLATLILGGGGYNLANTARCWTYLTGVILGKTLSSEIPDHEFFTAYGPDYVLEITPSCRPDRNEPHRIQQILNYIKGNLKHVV

Chain of HDAC1 (Q13547 whole entry): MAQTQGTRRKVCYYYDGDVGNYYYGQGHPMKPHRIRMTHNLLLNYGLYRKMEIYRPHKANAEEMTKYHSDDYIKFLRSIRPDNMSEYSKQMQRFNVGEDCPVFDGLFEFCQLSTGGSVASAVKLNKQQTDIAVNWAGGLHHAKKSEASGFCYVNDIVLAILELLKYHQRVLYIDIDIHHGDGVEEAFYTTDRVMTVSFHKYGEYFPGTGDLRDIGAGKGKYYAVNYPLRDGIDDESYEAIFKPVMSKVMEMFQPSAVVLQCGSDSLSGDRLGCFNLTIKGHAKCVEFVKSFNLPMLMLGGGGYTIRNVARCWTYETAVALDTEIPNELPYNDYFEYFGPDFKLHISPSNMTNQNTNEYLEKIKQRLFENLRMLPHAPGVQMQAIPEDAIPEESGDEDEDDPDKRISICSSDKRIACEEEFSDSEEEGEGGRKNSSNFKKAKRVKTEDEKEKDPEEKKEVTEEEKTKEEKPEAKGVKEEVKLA

| SMILES | IC50 (HDAC1) [nM] | IC50 (HDAC8) [nM] |
| --- | --- | --- |
| O=C1CCC(c2ccc(Cl)cc2)N1c1ccc(-c2noc(C(F)(F)F)n2)cc1F (centres unmarked) [Example 119, 5-(4-chlorophenyl)-1-(2-fluoro-4-(5-(trifluoromethyl)-1,2,4-oxadiazol-3-yl)phenyl)pyrrolidin-2-one] | 720 | 1300 |
| Cc1noc([C@H]2CCCCN2c2cc(F)c(-c3noc(C(F)(F)F)n3)cc2F)n1 [Example 121, (R)-3-(2,5-difluoro-4-(2-(3-methyl-1,2,4-oxadiazol-5-yl)piperidin-1-yl)phenyl)-5-(trifluoromethyl)-1,2,4-oxadiazole] | 26000 | 29000 |
| Cc1noc([C@@H]2CCC(=O)N2c2ccc(-c3noc(C(F)(F)F)n3)cc2F)n1 [Example 123, (S)-1-(2-fluoro-4-(5-(trifluoromethyl)-1,2,4-oxadiazol-3-yl)phenyl)-5-(3-methyl-1,2,4-oxadiazol-5-yl)pyrrolidin-2-one] | 1000 | 5200 |
| CC(C)(C)OC(=O)[C@@H]1CCC(=O)N1c1ccc(-c2noc(C(F)(F)F)n2)cc1F [Example 125, tert-butyl (S)-1-(2-fluoro-4-(5-(trifluoromethyl)-1,2,4-oxadiazol-3-yl)phenyl)-5-oxopyrrolidine-2-carboxylate] | 430 | 6200 |
| O=C1CCCC(c2ccccc2)N1c1ccc(-c2noc(C(F)(F)F)n2)cn1 (centres unmarked) [Example 128, 6-phenyl-1-(5-(5-(trifluoromethyl)-1,2,4-oxadiazol-3-yl)pyridin-2-yl)piperidin-2-one] | 2900 | 5100 |
| CN1CCN(c2ccc(-c3noc(C(F)(F)F)n3)cn2)[C@@H](c2ccccc2)C1 [Example 134, (S)-3-(6-(4-methyl-2-phenylpiperazin-1-yl)pyridin-3-yl)-5-(trifluoromethyl)-1,2,4-oxadiazole] | 360 | 2100 |
| Cc1cccc(CCOc2cc(-c3noc(C(F)(F)F)n3)ccn2)n1 [Example 139, 3-(2-(2-(6-methylpyridin-2-yl)ethoxy)pyridin-4-yl)-5-(trifluoromethyl)-1,2,4-oxadiazole] | 3400 | 4600 |
| FC(F)(F)c1nc(-c2ccc(N3CCOC[C@@H]3c3ccccc3)nc2)no1 [Example 141, (S)-3-phenyl-4-(5-(5-(trifluoromethyl)-1,2,4-oxadiazol-3-yl)pyridin-2-yl)morpholine] | 350 | 1800 |
| FC(F)(F)c1nc(-c2ccc(N3CCOCC3c3cccnc3)nc2)no1 (centres unmarked) [Example 143, 3-(pyridin-3-yl)-4-(5-(5-(trifluoromethyl)-1,2,4-oxadiazol-3-yl)pyridin-2-yl)morpholine] | 6200 | 2800 |
| O=C1NCCN(c2ccc(-c3noc(C(F)(F)F)n3)cn2)C1c1cccc(F)c1 (centres unmarked) [Example 153, 3-(3-fluorophenyl)-4-(5-(5-(trifluoromethyl)-1,2,4-oxadiazol-3-yl)pyridin-2-yl)piperazin-2-one] | 124 | 280 |
| O=C1COC[C@@H](c2ccccc2)N1c1ccc(-c2noc(C(F)(F)F)n2)cc1F [Example 161, (R)-4-(2-fluoro-4-(5-(trifluoromethyl)-1,2,4-oxadiazol-3-yl)phenyl)-5-phenylmorpholin-3-one] | 390 | 2100 |
| CN1CC(=O)N(c2ccc(-c3noc(C(F)(F)F)n3)cc2)C(c2ccccc2)C1 (centres unmarked) [Example 162, 4-methyl-6-phenyl-1-(4-(5-(trifluoromethyl)-1,2,4-oxadiazol-3-yl)phenyl)piperazin-2-one] | 850 | 1400 |
| O=C1COC[C@@H](c2ccccc2)N1c1cnc(-c2noc(C(F)(F)F)n2)cn1 [Example 164, (R)-5-phenyl-4-(5-(5-(trifluoromethyl)-1,2,4-oxadiazol-3-yl)pyrazin-2-yl)morpholin-3-one] | 2900 | 6100 |
| O=C1COC[C@@H](c2ccccc2)N1c1ccc(-c2noc(C(F)(F)F)n2)nn1 [Example 165, (R)-5-phenyl-4-(6-(5-(trifluoromethyl)-1,2,4-oxadiazol-3-yl)pyridazin-3-yl)morpholin-3-one] | 28000 | 21000 |
| NC(=O)c1ccccc1NCc1ccc(-c2noc(C(F)(F)F)n2)cn1 [Example 174, 2-(((5-(5-(Trifluoromethyl)-1,2,4-oxadiazol-3-yl)pyridin-2-yl)methyl)amino)benzamide] | 300 | 700 |
| O=C1CC[C@@H](CO)N1c1ccc(-c2noc(C(F)(F)F)n2)c(F)c1 [Example 188, (S)-1-(3-Fluoro-4-(5-(trifluoromethyl)-1,2,4-oxadiazol-3-yl)phenyl)-5-(hydroxymethyl)pyrrolidin-2-one] | 380 | 38 |
| O=C1CC[C@@H](CN2CCOCC2)N1c1ccc(-c2noc(C(F)(F)F)n2)c(F)c1 [Example 189, (S)-1-(3-Fluoro-4-(5-(trifluoromethyl)-1,2,4-oxadiazol-3-yl)phenyl)-5-(morpholinomethyl)pyrrolidin-2-one] | 15000 | 6900 |

| SMILES | IC50 (HDAC1) [nM] | IC50 (HDAC8) [nM] |
| --- | --- | --- |
| FC(F)(F)c1nc(-c2ccnc(OCc3ccno3)c2)no1 [Example 207, 2-(isoxazol-5-ylmethoxy)-4-[5-(trifluoromethyl)-1,2,4-oxadiazol-3-yl]pyridine] | 1500 | 1300 |
| FC(F)(F)c1nc(-c2ccnc(OCc3cnn4c3OCCC4)c2)no1 [Example 209, 3-[({4-[5-(trifluoromethyl)-1,2,4-oxadiazol-3-yl]pyridin-2-yl}oxy)methyl]-6,7-dihydro-5H-pyrazolo[5,1-b][1,3]oxazine] | 6800 | 4400 |
| Cn1nccc1COc1cc(-c2noc(C(F)(F)F)n2)ccn1 [Example 221, 2-[(1-methyl-1H-pyrazol-5-yl)methoxy]-4-[5-(trifluoromethyl)-1,2,4-oxadiazol-3-yl]pyridine] | 2800 | 1600 |
| Cc1nc(COc2cc(-c3noc(C(F)(F)F)n3)ccn2)no1 [Example 225, 2-[(5-methyl-1,2,4-oxadiazol-3-yl)methoxy]-4-[5-(trifluoromethyl)-1,2,4-oxadiazol-3-yl]pyridine] | 1500 | 620 |
| Cn1c(OCc2ccc(-c3noc(C(F)(F)F)n3)c(F)c2)nc2ccccc21 [Example 235, 2-({3-fluoro-4-[5-(trifluoromethyl)-1,2,4-oxadiazol-3-yl]phenyl}methoxy)-1-methyl-1H-benzimidazole] | 520 | 770 |
| Cn1c(OCc2ccc(-c3noc(C(F)(F)F)n3)c(F)c2)nc2cccnc21 [Example 238, 2-({3-fluoro-4-[5-(trifluoromethyl)-1,2,4-oxadiazol-3-yl]phenyl}methoxy)-3-methyl-3H-imidazo[4,5-b]pyridine] | 510 | 1300 |
| Fc1cc(COc2nc[nH]n2)ccc1-c1noc(C(F)(F)F)n1 [Example 247, 3-(2-fluoro-4-{[(1H-1,2,4-triazol-3-yl)oxy]methyl}phenyl)-5-(trifluoromethyl)-1,2,4-oxadiazole] | 5500 | 1400 |
| O=c1ccc2ccc(Br)cc2n1Cc1ccc(-c2noc(C(F)(F)F)n2)cc1 [Example 321, 7-bromo-1-{4-[5-(trifluoromethyl)-1,2,4-oxadiazol-3-yl]benzyl}quinolin-2(1H)-one] | 210 | 2600 |
| Fc1ccc2ccc(OCc3ccc(-c4noc(C(F)(F)F)n4)cn3)nc2c1 [Example 326, 7-fluoro-2-({5-[5-(trifluoromethyl)-1,2,4-oxadiazol-3-yl]pyridin-2-yl}methoxy)quinoline] | 35000 | 45000 |
| O=C1CCC(c2ccc(-c3noc(C(F)(F)F)n3)cc2)N1c1ccccc1F (centres unmarked) [Example 329] | 3900 | 7900 |
| O=C1CCc2cccnc2N1Cc1ccc(-c2noc(C(F)(F)F)n2)cn1 [Example 330, 1-({5-[5-(trifluoromethyl)-1,2,4-oxadiazol-3-yl]pyridin-2-yl}methyl)-3,4-dihydro-1,8-naphthyridin-2(1H)-one] | 3700 | 18000 |
| CC(C)(C)OC(=O)[C@@H]1CCC(=O)N1c1ccc(-c2noc(C(F)(F)F)n2)c(F)c1 [Example 331, tert-butyl 1-{3-fluoro-4-[5-(trifluoromethyl)-1,2,4-oxadiazol-3-yl]phenyl}-5-oxo-L-prolinate] | 4900 | 19000 |
| O=C1OC[C@@H](c2ccccc2)N1c1ccc(-c2noc(C(F)(F)F)n2)c(F)c1 [Example 332, (4R)-3-{3-fluoro-4-[5-(trifluoromethyl)-1,2,4-oxadiazol-3-yl]phenyl}-4-phenyl-1,3-oxazolidin-2-one] | 4500 | 4500 |
| Cc1noc([C@@H]2CCC(=O)N2c2ccc(-c3noc(C(F)(F)F)n3)c(F)c2)n1 [Example 333, (5S)-1-{3-fluoro-4-[5-(trifluoromethyl)-1,2,4-oxadiazol-3-yl]phenyl}-5-(3-methyl-1,2,4-oxadiazol-5-yl)pyrrolidin-2-one] | 3300 | 6700 |
| O=C([C@@H]1CCC(=O)N1c1cc(F)c(-c2noc(C(F)(F)F)n2)cc1F)N1CCCc2ccccc21 [Example 334, (5S)-1-{2,5-difluoro-4-[5-(trifluoromethyl)-1,2,4-oxadiazol-3-yl]phenyl}-5-(3,4-dihydroquinolin-1(2H)-ylcarbonyl)pyrrolidin-2-one] | 4400 | 19000 |
| O=C([C@@H]1CCC(=O)N1c1cc(F)c(-c2noc(C(F)(F)F)n2)cc1F)N1CCc2ccccc2C1 [Example 335, (5S)-1-{2,5-difluoro-4-[5-(trifluoromethyl)-1,2,4-oxadiazol-3-yl]phenyl}-5-(3,4-dihydroisoquinolin-2(1H)-ylcarbonyl)pyrrolidin-2-one] | 1200 | 7400 |
| O=C([C@@H]1CCC(=O)N1c1cc(F)c(-c2noc(C(F)(F)F)n2)cc1F)N1CCCC1 [Example 336, (5S)-1-{2,5-difluoro-4-[5-(trifluoromethyl)-1,2,4-oxadiazol-3-yl]phenyl}-5-(pyrrolidin-1-ylcarbonyl)pyrrolidin-2-one] | 10000 | 26000 |
